Here are results for 10 compounds from patent US8318772B2, “Amine compounds and medical uses thereof” (Institute of Pharmacology and Toxicology Academy of …, priority 2008, dated 2012).

Molecules are shown by their SMILES.

Data set [1] relates to forced swim mice. The data set is described as follows: Forced swim test in mice. In kind it is in vivo, ICR mice. The following applies: for Immobility time: last 4 min of 6 min. On the procedure:
Mail ICR mice (SPF grade) weighing 18-22 g were placed in a glass jar (diameter 10 cm, and height 20 cm) with water 10 cm in depth and a temperature of 25° C., observed for 6 min, and the accumulated immobility time of mice (i.e., the time that the animal has no motion or a slight motion in its hind limbs, but maintains body floated without motion) during the last 4 min was recorded. The mice were administrated with the compound to be tested and Duloxetine as the positive control drug via intraperitoneal injection at 30 min before the test or via intragastric administration at 60 min before the test.
In the forced swim model of mice, the antidepressant effect was evaluated to by observing the immobility time of the forced swim mice, and the shorter the immobility time, the stronger the antidepressant effect.

In data set [2] the test system is tail suspended mice. The data set is described as follows: Tail suspension test in mice. Format: in vivo, Male ICR mice. The following applies: for Immobility time: last 4 min of 6 min.
Data set [3] relates to tail suspended mice. The data set can be described thus: Tail suspension test in mice. In kind it is in vivo, Male ICR mice. The following applies: 30 min before test, last 4 min of 6 min. The text has this:
Male ICR mice (SPF grade) weighing 18-22 g each was suspended by […] separately at 1 cm from the end of the tail with a clamp attached to a rope at the center of top plate of a 25×25×25 cm tail suspension box, and the head is away from the box bottom by 4-5 cm. […] The results of antidepressant effects of the target compounds administrated via intraperitoneal injection as determined by the tail suspension test in mice are given in Table 1. In the tail-suspended model of mice, the antidepressant effect was evaluated by observing the immobility time of the tail-suspended mice, and the shorter the immobility time, the stronger the antidepressant effect.

Where [4] appears, read: 2.5 mg/kg i.p., 30 min before test.
The mark [5] stands for this setting: 5 mg/kg i.g., 60 min before test.
Setting [6] is: 5 mg/kg i.p., 30 min before test.
Where [7] appears, read: 10 mg/kg i.g., 60 min before test.
Setting [8] is: 10 mg/kg i.p., 30 min before test.
The mark [9] stands for this setting: 20 mg/kg i.g., 60 min before test.
Setting [10] is: 20 mg/kg i.p., 30 min before test.

Compound `CN(C)CCC(Oc1cccc2c1OCCO2)c1cccs1.O=C(O)C(=O)O` (stereo not shown) displayed a melting point of 89 to 92 °C.

`CNCCC(Oc1cccc2c1OCO2)c1cccs1.O=C(O)C(=O)O` (stereo not shown) [Compound I2] gave a melting point of 120 to 123 °C. The compound further yielded an Immobility time in data set [1] (setting [4]) of 113.6 ± 47.4 s. Also, the Immobility time in data set [1] (setting [5]) is reported as 104.1 ± 39.7 s. The same compound showed an Immobility time in data set [1] (setting [6]) of 119.4 ± 47.0 s. The same compound gave an Immobility time in data set [1] (setting [7]) of 83.7 ± 34.2 s. The Immobility time in data set [1] (setting [8]) worked out at 86.1 ± 36.5 s. The compound also yielded an Immobility time in data set [1] (setting [9]) of 60.1 ± 33.8 s. The compound also displayed an Immobility time in data set [1] (setting [10]) of 43.1 ± 37.1 s. The “antidepressant effect compared with Duloxetine (in words)” value in data set [1] (i.g., I2 20 mg/kg vs Duloxetine 40 mg/kg) is given as “comparable to that of Duloxetine at the dose of 40 mg/kg”. In data set [1] (intragastric administration, Table 4), the “effect on immobility time (in words)” value is reported as “significantly shorten the immobility time”. The compound further displayed an Immobility time in data set [2] (setting [5]) of 66.1 ± 44.9 s. This compound also had an Immobility time in data set [2] (setting [7]) of 51.8 ± 36.0 s. The same compound showed an Immobility time in data set [2] (setting [9]) of 22.0 ± 16.9 s. Moreover, the “effect compared with duloxetine (in words)” value in data set [2] (i.g., I2 5 mg/kg vs duloxetine 10 mg/kg) is recorded as “remarkably greater than that of duloxetine at the dose of 10 mg/kg”. For the same compound, in data set [2] (intragastric administration, Table 2), the “effect on immobility time (in words)” value was “significantly shorten the immobility time”. The Immobility time in data set [3] (2.5 mg/kg i.p.) is reported as 35.0 ± 30.0 s. Also, the Immobility time in data set [3] (5 mg/kg i.p.) is reported as 20.8 ± 32.1 s. Also, the Immobility time in data set [3] (10 mg/kg i.p.) is reported as 1.9 ± 4.0 s. In data set [3] (20 mg/kg i.p.), this compound registered an Immobility time of 2.5 ± 4.1 s.

With `CNCC[C@H](Oc1cccc2ccccc12)c1cccs1` [Duloxetine, reference compound], the Immobility time in data set [1] (setting [10]) was 96.7 to 135.4 s; in data set [1] (40 mg/kg i.g., 60 min before test), 60.5 ± 44.1 s; in data set [2] (setting [7]), 81.0 ± 44.7 s; in data set [2] (setting [8]), 35.9 to 49.2 s.

`CN(C)CCC(Oc1cccc2c1OCO2)c1cccs1.O=C(O)C(=O)O` (stereo not shown) [Compound I1, N,N-dimethyl-3-[(benzo[1,3]dioxolan-4-yl)-oxy]-3-(thiophen-2-yl)-propylamine.oxalate] came in with a melting point of 85 to 88 °C. The Immobility time in data set [1] (setting [4]) is on record as 148.7 ± 40.3 s. The same compound gave an Immobility time in data set [1] (setting [6]) of 86.7 ± 44.7 s. In data set [1] (setting [8]), this compound had an Immobility time of 54.6 ± 44.0 s. The same compound yielded an Immobility time in data set [1] (setting [10]) of 18.6 ± 15.7 s. The same compound displayed an Immobility time in data set [3] (2.5 mg/kg i.p.) of 38.2 ± 32.5 s. The compound also registered an Immobility time in data set [3] (5 mg/kg i.p.) of 20.2 ± 17.1 s. In data set [3] (10 mg/kg i.p.), this compound had an Immobility time of 6.2 ± 7.4 s. This compound registered an Immobility time in data set [3] (20 mg/kg i.p.) of 2.0 ± 6.3 s.

In turn, `CN(C)CCC(Oc1cccc2c1OCO2)c1ccco1.O=C(O)C(=O)O` (stereo not shown) [Compound I6, N,N-dimethyl-[3-(benzo[1,3]dioxolan-4-yl-oxy)-3-(furan-2-yl)]-propylamine.oxalate] displayed a melting point of 97 to 101 °C. The compound also returned an Immobility time in data set [1] (setting [4]) of 92.4 ± 39.2 s. Further, the Immobility time in data set [1] (setting [6]) was determined as 96.5 ± 43.3 s. In addition, the Immobility time in data set [1] (setting [8]) was 108.2 ± 46.7 s. For the same compound, the Immobility time in data set [1] (setting [10]) was determined as 61.2 ± 44.5 s. Also, the Immobility time in data set [3] (2.5 mg/kg i.p.) is 51.2 ± 34.3 s. The compound further gave an Immobility time in data set [3] (5 mg/kg i.p.) of 53.9 ± 46.9 s. In data set [3] (10 mg/kg i.p.), this compound gave an Immobility time of 22.5 ± 28.1 s. The Immobility time in data set [3] (20 mg/kg i.p.) came out at 11.9 ± 16.8 s.

Regarding `CNCCC(Oc1cccc2c1OCO2)c1ccco1.O=C(O)C(=O)O` (stereo not shown) [Compound I7, N-methyl-[3-(benzo[1,3]dioxolan-4-yl-oxy)-3-(furan-2-yl)]propylamine.oxalate], the melting point fell in the range of 130 to 133 °C. In data set [1] (setting [4]), this compound showed an Immobility time of 94.3 ± 55.3 s. In addition, the Immobility time in data set [1] (setting [6]) worked out at 78.9 ± 43.1 s. Besides, the Immobility time in data set [1] (setting [8]) is 70.9 ± 33.0 s. Further, the Immobility time in data set [1] (setting [10]) was 28.4 ± 35.8 s. For the same compound, the Immobility time in data set [3] (2.5 mg/kg i.p.) amounted to 30.7 ± 44.1 s. In addition, the Immobility time in data set [3] (5 mg/kg i.p.) came out at 21.9 ± 21.5 s. Also, the Immobility time in data set [3] (10 mg/kg i.p.) worked out at 33.3 ± 31.2 s. In data set [3] (20 mg/kg i.p.), this compound yielded an Immobility time of 0.3 ± 0.95 s.

Compound `O=C(O)C(=O)O.c1csc(C(CCN2CCCCC2)Oc2cccc3c2OCO3)c1` (stereo not shown) returned a melting point of 118 to 120 °C.

In the case of `O=C(O)C(=O)O.c1csc(C(CCN2CCCC2)Oc2cccc3c2OCO3)c1` (stereo not shown), the melting point fell in the range of 105 to 108 °C.

In turn, `CNCCC(Oc1cccc2c1OCCO2)c1cccs1.O=C(O)C(=O)O` (stereo not shown) showed a melting point of 128 to 131 °C.

`CN(C)CCC(Oc1cccc2c1OCCO2)c1ccco1.O=C(O)C(=O)O` (stereo not shown) registered a melting point of 101 to 103 °C.
